The values that follow come from patent US20230174484A1, “ANTAGONISTS OF GPR39 PROTEIN” (Oregon Health & Science University, priority 2020, published 2023).

SMILES strings stand for the structures.

One experiment addresses T1, human GPR39 receptor (Homo sapiens, UniProt O43194).
T1 construct: PC3 Cells, Expressing the Endogenous Human GPR39 Receptor; endogenous in cells; host or cells: PC3 (human prostate adenocarcinoma) cells
T1 sequence (O43194 1-453): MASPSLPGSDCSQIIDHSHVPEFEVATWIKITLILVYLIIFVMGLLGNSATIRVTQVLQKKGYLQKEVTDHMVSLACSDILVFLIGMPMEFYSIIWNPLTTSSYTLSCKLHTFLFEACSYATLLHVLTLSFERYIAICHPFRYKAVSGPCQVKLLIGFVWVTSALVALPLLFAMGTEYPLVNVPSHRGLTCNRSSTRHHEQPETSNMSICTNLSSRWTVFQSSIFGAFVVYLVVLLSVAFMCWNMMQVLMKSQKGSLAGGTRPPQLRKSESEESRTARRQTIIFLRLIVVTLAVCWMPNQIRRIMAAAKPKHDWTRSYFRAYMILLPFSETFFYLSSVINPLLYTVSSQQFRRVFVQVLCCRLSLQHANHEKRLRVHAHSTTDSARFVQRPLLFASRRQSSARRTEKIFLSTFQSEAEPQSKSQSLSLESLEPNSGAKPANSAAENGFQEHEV
Kind of experiment: Measurement of intracellular calcium response in PC3 cells (FLIPR), antagonism of the C3 agonist response. The class given is cell-based. The note with it: PC-3, hGPR39 receptor agonist, calcium response, read-out: EC90 (concentration producing 90% of the maximal response). A digest of the protocol:
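PC3 cells with endogenous human GPR39 were loaded with Calcium-6 and read by FLIPR, with compounds tested in buffer with 30 μM final ZnCl2 and 0.32% DMSO. Peak Ca2+ signal was scored as % inhibition of the EC90 C3 response, fitted by four-parameter logistic. Functional pKi was derived via the modified Cheng-Prusoff equation.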
For the compound `CNc1nc(NCc2ccc(NS(C)(=O)=O)cc2Cl)cc(-c2ccccn2)n1` [Example C3, reference compound], the EC90 turned out to be 1500 nM.

Staying with this experiment, now noted: functional pKi (modified Cheng-Prusoff), inhibition of the C3 (TC-G 1008) response at EC90, 30 μM ZnCl2, read-out: fpKi activity.
In the case of `O=C(Nc1ccc(C(=O)N2CCc3ccccc3C2)c(N2CCCCCC2)c1)C1CC1` [Example 21, N-(3-(azepan-1-yl)-4-(1,2,3,4-tetrahydroisoquinoline-2-carbonyl)phenyl) cyclopropanecarboxamide], the Ki is 316 to 1000 nM. On to `O=C(Nc1ccc(C(=O)N2CCN(Cc3ccccc3F)CC2)c(N2CCCCCC2)c1)C1CC1` [Example 28, N-(3-(azepan-1-yl)-4-(4-(2-fluorobenzyl)piperazine-1-carbonyl)phenyl) Cyclopropanecarboxamide], for which the Ki was 63.1 to 251 nM. On to `CCCN1CCN(C(=O)c2ccc(NC(=O)C3CC3)cc2N2CCCCCC2)C(c2ccccc2)C1` (single isomer, unassigned) [Example 73a, N-[3-(azepan-1-yl)-4-(2-phenyl-4-propylpiperazine-1-carbonyl)phenyl]Cyclopropanecarboxamide], for which the Ki was no more than 50.1 nM. On the same count and under the same terms, then `CC1CN(C(=O)c2ccc(NC(=O)C3CC3)cc2N2CCCCCC2)CCN1C` (centres unmarked) [Example 55, N-[3-(azepan-1-yl)-4-(3,4-dimethylpiperazine-1-carbonyl)phenyl]cyclopropanecarboxamide], with 316 to 1000 nM; and `CN1CCN(C(=O)c2ccc(NC(=O)C3CC3)cc2N2CCC3(COC3)C2)C(c2ccccc2Cl)C1` (racemic) [Example 211, N-[4-[2-(2-chlorophenyl)-4-methylpiperazine-1-carbonyl]-3-(2-oxa-7-azaspiro[3.4]octan-7-yl)phenyl]cyclopropanecarboxamide], with 63.1 to 251 nM. Same read-out and setting: as for `O=C(Nc1ccc(C(=O)N2CCC(C(F)(F)F)CC2)c(N2CCCC2)c1)C1CC1` [Example 61, N-[3-pyrrolidin-1-yl-4-[4-(trifluoromethyl)piperidine-1-carbonyl]phenyl]cyclopropanecarboxamide], the figure is 63.1 to 251 nM.

On to `CCCN1CCN(C(=O)c2ccc(NC(=O)C3CC3)cc2N2CC3CC3C2)CC1` (centres unmarked) [Example 12, N-(3-(3-azabicyclo[3.1.0]hexan-3-yl)-4-(4-propylpiperazine-1-carbonyl)phenyl)cyclopropanecarboxamide], for which the Ki lay within 316 to 1000 nM.

Turning to `Cc1cc(C(F)(F)F)nn1-c1cc(NC(=O)C2CC2)ccc1C(=O)N1CCS(=O)(=O)CC1` [Example 178, N-[4-(1,1-dioxo-1,4-thiazinane-4-carbonyl)-3-[5-methyl-3-(trifluoromethyl)pyrazol-1-yl]phenyl]cyclopropanecarboxamide], the Ki lay in the range of 63.1 to 251 nM. On the same count and under the same terms, as for `CN1CCN(C(=O)c2ccc(NC(=O)C3CC3)cc2N2CCCC2)C(c2cccs2)C1` (racemic) [Example 86c, N-[4-(4-methyl-2-thiophen-2-ylpiperazine-1-carbonyl)-3-pyrrolidin-1-ylphenyl]cyclopropanecarboxamide], the figure is no more than 50.1 nM; as for `CSc1nnc(-c2ccc(NC(=O)C3CC3)cc2N2CCCCCC2)n1C` [Example 109, N-[3-(azepan-1-yl)-4-(4-methyl-5-methylsulfanyl-1,2,4-triazol-3-yl)phenyl]Cyclopropanecarboxamide], 1260 to 6310 nM; as for `O=C(Nc1ccc(C(=O)N2CCN(Cc3ncco3)CC2)c(N2CCCCCC2)c1)C1CC1` [Example 24, N-(3-(azepan-1-yl)-4-(4-(oxazol-2-ylmethyl)piperazine-1-carbonyl)phenyl) cyclopropanecarboxamide], 63.1 to 251 nM. Same read-out and setting: as for `Cc1nnc(-c2ccc(NC(=O)C3CC3)cc2N2CCCCCC2)n1C` [Example 113, N-[3-(azepan-1-yl)-4-(4,5-dimethyl-1,2,4-triazol-3-yl)phenyl]cyclopropanecarboxamide], the figure is 1260 to 6310 nM.

For the compound `CCCN1CCN(C(=O)c2ccc(-c3nnc(C4CC4)[nH]3)cc2N2CCCCCC2)CC1` [Example 118, [2-(azepan-1-yl)-4-(5-cyclopropyl-4H-1,2,4-triazol-3-yl)phenyl]-(4-propylpiperazin-1-yl)methanone], the Ki lay in the range of 316 to 1000 nM.
